Each block holds one compound with its values, some of them ahead of it.
Target: human APJ receptor (Homo sapiens (Human), UniProt P35414)
Assay: Intracellular cAMP accumulation assay (APJ hcAMP, HTRF)
Assay type: cell-based
Conditions: human APJ, cAMP accumulation; read-out: Human APJ cAMP EC50 Potency range
Procedure, shortened: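 HEK293 cells stably expressing human APJ, 5,000 per well, incubated 30 min at rt with compound, […] and 2 μM forskolin. cAMP measured by HTRF against a cAMP standard curve as inhibition of forskolin-driven production. EC50 from variable-slope sigmoidal fit.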

Chain of human APJ receptor (P35414 whole entry): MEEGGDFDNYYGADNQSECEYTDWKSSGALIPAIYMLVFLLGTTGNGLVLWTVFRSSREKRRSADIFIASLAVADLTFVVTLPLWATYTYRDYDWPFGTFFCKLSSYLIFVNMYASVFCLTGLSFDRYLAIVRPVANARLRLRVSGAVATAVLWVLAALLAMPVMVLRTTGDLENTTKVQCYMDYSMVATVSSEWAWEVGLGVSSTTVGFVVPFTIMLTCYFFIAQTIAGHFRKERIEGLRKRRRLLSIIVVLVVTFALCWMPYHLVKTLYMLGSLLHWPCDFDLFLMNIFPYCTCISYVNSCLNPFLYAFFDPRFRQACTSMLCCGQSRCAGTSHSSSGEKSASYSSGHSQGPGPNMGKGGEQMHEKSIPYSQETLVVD

SMILES: CCOCc1nc(=O)c(S(=O)(=O)c2ccc(-c3ccc(F)nc3)cc2)c(O)n1[C@@H](COC)c1ccccc1 [Example 317, 2-(ethoxymethyl)-5-[4 (6-fluoropyridin-3-yl)benzenesulfonyl]-6-hydroxy-1-[(1R)-2-methoxy-1-phenylethyl]-1,4-dihydropyrimidin-4-one]
- EC50: 10 to 100 nM

SMILES: CCOCc1nc(=O)c(S(=O)(=O)c2ccc(-c3ccc(F)nc3C)cc2)c(O)n1[C@@H](COC)c1ccccc1 [Example 318, 2-(ethoxymethyl)-5-[4-(6-fluoro-2-methylpyridin-3-yl)benzenesulfonyl]-6-hydroxy-1-[(1R)-2-methoxy-1-phenylethyl]-1,4-dihydropyrimidin-4-one]
- EC50: 0.01 to 10 nM

SMILES: CCOCc1nc(=O)c(S(=O)(=O)c2ccc(-c3cccnc3C)cc2)c(O)n1[C@H]1CCc2ccccc21 [Example 319, 1-[(1S)-2,3-dihydro-1H-inden-1-yl]-2-(ethoxymethyl)-6-hydroxy-5-[4-(2-methylpyridin-3-yl)benzenesulfonyl]-1,4-dihydropyrimidin-4-one]
- EC50: 0.01 to 10 nM

SMILES: Cc1nc(F)ccc1-c1ccc(S(=O)(=O)c2c(O)n([C@H]3CCc4ccccc43)c(COC(C)C)nc2=O)cc1 [Example 320, 1-[(1S)-2,3-dihydro-1H-inden-1-yl]-5-[4-(6-fluoro-2-methylpyridin-3-yl)benzenesulfonyl]-6-hydroxy-2-[(propan-2-yloxy)methyl]-1,4-dihydropyrimidin-4-one]
- EC50: 0.01 to 10 nM

SMILES: COC[C@@H](c1ccccc1)n1c(COC(C)C)nc(=O)c(S(=O)(=O)c2ccc(-c3ccc(F)nc3C)cc2)c1O [Example 321, 5-[4-(6-fluoro-2-methylpyridin-3-yl)benzenesulfonyl]-6-hydroxy-1-[(1R)-2-methoxy-1-phenylethyl]-2-[(propan-2-yloxy)methyl]-1,4-dihydropyrimidin-4-one]
- EC50: 0.01 to 10 nM

SMILES: CCOCc1nc(=O)c(S(=O)(=O)c2ccc(-c3cncc(F)c3)cc2)c(O)n1[C@H]1CCc2ccccc21 [Example 322, 1-[(1S)-2,3-dihydro-1H-inden-1-yl]-2-(ethoxymethyl)-5-[4-(5-fluoropyridin-3-yl)benzenesulfonyl]-6-hydroxy-1,4-dihydropyrimidin-4-one]
- EC50: 0.01 to 10 nM

SMILES: CCOCc1nc(=O)c(S(=O)(=O)c2ccc(-c3ccncc3C)cc2)c(O)n1[C@H]1CCc2ccccc21 [Example 323, 1-[(1S)-2,3-dihydro-1H-inden-1-yl]-2-(ethoxymethyl)-6-hydroxy-5-[4-(3-methylpyridin-4-yl)benzenesulfonyl]-1,4-dihydropyrimidin-4-one]
- EC50: 0.01 to 10 nM

SMILES: CCOCc1nc(=O)c(S(=O)(=O)c2ccc(-c3ccnc(F)c3C)cc2)c(O)n1[C@H]1CCc2ccccc21 [Example 324, 1-[(1S)-2,3-dihydro-1H-inden-1-yl]-2-(ethoxymethyl)-5-[4-(2-fluoro-3-methylpyridin-4-yl)benzenesulfonyl]-6-hydroxy-1,4-dihydropyrimidin-4-one]
- EC50: 0.01 to 10 nM

SMILES: CCOCc1nc(=O)c(S(=O)(=O)c2ccc(-c3ccc(F)nc3)cc2)c(O)n1[C@H]1CCc2ccccc21 [Example 325, 1-[(1S)-2,3-dihydro-1H-inden-1-yl]-2-(ethoxymethyl)-5-[4-(6-fluoropyridin-3-yl)benzenesulfonyl]-6-hydroxy-1,4-dihydropyrimidin-4-one]
- EC50: 0.01 to 10 nM

SMILES: CCOCc1nc(=O)c(S(=O)(=O)c2ccc(-c3ccc(F)nc3C)cc2)c(O)n1[C@H]1CCc2ccccc21 [Example 326, 1-[(1S)-2,3-dihydro-1H-inden-1-yl]-2-(ethoxymethyl)-5-[4-(6-fluoro-2-methylpyridin-3-yl)benzenesulfonyl]-6-hydroxy-1,4-dihydropyrimidin-4-one]
- EC50: 0.01 to 10 nM

SMILES: COC[C@@H](c1ccccc1)n1c(COC(C)C)nc(=O)c(S(=O)(=O)c2ccc(-c3ccnc(F)c3C)cc2)c1O [Example 327, 5-[4-(2-fluoro-3-methylpyridin-4-yl)benzenesulfonyl]-6-hydroxy-1-[(1R)-2-methoxy-1-phenylethyl]-2-[(propan-2-yloxy)methyl]-1,4-dihydropyrimidin-4-one]
- EC50: 0.01 to 10 nM

Further lines, results first:

- EC50: 0.01 to 10 nM
SMILES: COC[C@@H](c1ccccc1)n1c(COC(C)C)nc(=O)c(S(=O)(=O)c2ccc(-c3cccnc3C)cc2)c1O [Example 328]

- EC50: 0.01 to 10 nM
SMILES: COC[C@@H](c1ccccc1)n1c(COC(C)C)nc(=O)c(S(=O)(=O)c2ccc(-c3ccncc3C)cc2)c1O [Example 329, 6-hydroxy-1-[(1R)-2-methoxy-1-phenylethyl]-5-[4-(3-methylpyridin-4-yl)benzenesulfonyl]-2-[(propan-2-yloxy)methyl]-1,4-dihydropyrimidin-4-one]

- EC50: 0.01 to 10 nM
SMILES: Cc1ncccc1-c1ccc(S(=O)(=O)c2c(O)n([C@H]3CCc4ccccc43)c(COC(C)C)nc2=O)cc1 [Example 330, 1-[(1S)-2,3-dihydro-1H-inden-1-yl]-6-hydroxy-5-[4-(2-methylpyridin-3-yl)benzenesulfonyl]-2-[(propan-2-yloxy)methyl]-1,4-dihydropyrimidin-4-one]

- EC50: 0.01 to 10 nM
SMILES: Cc1c(-c2ccc(S(=O)(=O)c3c(O)n([C@H]4CCc5ccccc54)c(COC(C)C)nc3=O)cc2)ccnc1F [Example 331, 1-[(1S)-2,3-dihydro-1H-inden-1-yl]-5-[4-(2-fluoro-3-methylpyridin-4-yl)benzenesulfonyl]-6-hydroxy-2-[(propan-2-yloxy)methyl]-1,4-dihydropyrimidin-4-one]

- EC50: 0.01 to 10 nM
SMILES: Cc1cnccc1-c1ccc(S(=O)(=O)c2c(O)n([C@H]3CCc4ccccc43)c(COC(C)C)nc2=O)cc1 [Example 332, 1-[(1S)-2,3-dihydro-1H-inden-1-yl]-6-hydroxy-5-[4-(3-methylpyridin-4-yl)benzenesulfonyl]-2-[(propan-2-yloxy)methyl]-1,4-dihydropyrimidin-4-one]

- EC50: 0.01 to 10 nM
SMILES: COC[C@@H](c1ccccc1)n1c(COC(C)C)nc(=O)c(S(=O)(=O)c2ccc(-c3ccnc(F)c3C)c(F)c2)c1O [Example 333, 5-[3-fluoro-4-(2-fluoro-3-methylpyridin-4-yl)benzenesulfonyl]-6-hydroxy-1-[(1R)-2-methoxy-1-phenylethyl]-2-[(propan-2-yloxy)methyl]-1,4-dihydropyrimidin-4-one]

- EC50: 0.01 to 10 nM
SMILES: CCOCc1nc(=O)c(S(=O)(=O)c2ccc(-c3cncc(F)c3)cc2)c(O)n1[C@@H](CC)c1ccccc1 [Example 334, 2-(ethoxymethyl)-5-[4-(5-fluoropyridin-3-yl)benzenesulfonyl]-6-hydroxy-1-[(1S)-1-phenylpropyl]-1,4-dihydropyrimidin-4-one]

- EC50: 0.01 to 10 nM
SMILES: COC[C@@H](c1ccccc1)n1c(COC(C)C)nc(=O)c(S(=O)(=O)c2ccc(-c3ccc(F)nc3)c(F)c2)c1O [Example 335, 5-[3-fluoro-4-(6-fluoropyridin-3-yl)benzenesulfonyl]-6-hydroxy-1-[(1R)-2-methoxy-1-phenylethyl]-2-[(propan-2-yloxy)methyl]-1,4-dihydropyrimidin-4-one]

- EC50: 0.01 to 10 nM
SMILES: COC[C@@H](c1ccccc1)n1c(COC(C)C)nc(=O)c(S(=O)(=O)c2ccc(-c3ccncc3C)c(F)c2)c1O [Example 336, 5-[3-fluoro-4-(3-methylpyridin-4-yl)benzenesulfonyl]-6-hydroxy-1-[(1R)-2-methoxy-1-phenylethyl]-2-[(propan-2-yloxy)methyl]-1,4-dihydropyrimidin-4-one]

- EC50: 0.01 to 10 nM
SMILES: COC[C@@H](c1ccccc1)n1c(COC(C)C)nc(=O)c(S(=O)(=O)c2ccc(F)c(F)c2)c1O [Example 337, 5-(3,4-difluorobenzenesulfonyl)-6-hydroxy-1-[(1R)-2-methoxy-1-phenylethyl]-2-[(propan-2-yloxy)methyl]-1,4-dihydropyrimidin-4-one]

- EC50: 0.01 to 10 nM
SMILES: CCOCc1nc(=O)c(S(=O)(=O)c2ccc(-c3ccnc(F)c3C)c(F)c2)c(O)n1[C@@H](COC)c1ccccc1 [Example 338, 2-(ethoxymethyl)-5-[3-fluoro-4-(2-fluoro-3-methylpyridin-4-yl)benzenesulfonyl]-6-hydroxy-1-[(1R)-2-methoxy-1-phenylethyl]-1,4-dihydropyrimidin-4-one]

- EC50: 0.01 to 10 nM
SMILES: CCOCc1nc(=O)c(S(=O)(=O)c2ccc(-c3ccc(F)nc3C)c(F)c2)c(O)n1[C@@H](COC)c1ccccc1 [Example 339, 2-(ethoxymethyl)-5-[3-fluoro-4-(6-fluoro-2-methylpyridin-3-yl)benzenesulfonyl]-6-hydroxy-1-[(1R)-2-methoxy-1-phenylethyl]-1,4-dihydropyrimidin-4-one]

- EC50: 0.01 to 10 nM
SMILES: CCOCc1nc(=O)c(S(=O)(=O)c2ccc(-c3ccncc3C)c(F)c2)c(O)n1[C@@H](COC)c1ccccc1 [Example 340, 2-(ethoxymethyl)-5-[3-fluoro-4-(3-methylpyridin-4-yl)benzenesulfonyl]-6-hydroxy-1-[(1R)-2-methoxy-1-phenylethyl]-1,4-dihydropyrimidin-4-one]

- EC50: 0.01 to 10 nM
SMILES: CCOCc1nc(=O)c(S(=O)(=O)c2ccc(-c3ccc(F)nc3)c(F)c2)c(O)n1[C@@H](COC)c1ccccc1 [Example 341, 2-(ethoxymethyl)-5-[3-fluoro-4-(6-fluoropyridin-3-yl)benzenesulfonyl]-6-hydroxy-1-[(1R)-2-methoxy-1-phenylethyl]-1,4-dihydropyrimidin-4-one]

- EC50: 10 to 100 nM
SMILES: CCOCc1nc(=O)c(S(=O)(=O)c2ccc(-c3ccnc(F)c3C)cc2)c(O)n1[C@H]1CCOc2ccccc21 [Example 342, 1-[(4S)-3,4-dihydro-2H-1-benzopyran-4-yl]-2-(ethoxymethyl)-5-[4-(2-fluoro-3-methylpyridin-4-yl)benzenesulfonyl]-6-hydroxy-1,4-dihydropyrimidin-4-one]

- EC50: 0.01 to 10 nM
SMILES: CCOCc1nc(=O)c(S(=O)(=O)c2ccc(-c3ccnc(F)c3C)c(F)c2)c(O)n1[C@@H](COC)c1cccc(C#N)c1 [Example 343, 3-[(1R)-1-[2-(ethoxymethyl)-5-[3-fluoro-4-(2-fluoro-3-methylpyridin-4-yl)benzenesulfonyl]-6-hydroxy-4-oxo-1,4-dihydropyrimidin-1-yl]-2-methoxyethyl] benzonitrile]

From patent US10508104B2, “6-hydroxy-5-(phenyl/heteroarylsulfonyl)pyrimidin-4(1H)-one as APJ agonists” (Bristol-Myers Squibb Company, priority 2016, dated 2019)
